Here are results for nine compounds from patent US5340788A, “Diphenylsulfone derivatives and heat sensitive recording materials” (Nippon Soda Co., Ltd., priority 1990, dated 1994).

The structures appear in SMILES notation.

Data set [1] has as its system Salmonela strains (TA-100 and TA-1535) and E. coli (WP2uvrA). The experiment in a line: Mutagenic activity, Ames test. The following applies: for increase of recovery mutation colony: 128-5000 μg/plate, metabolic activation (S9) and inactivation, all strains; for mutagenicity (conclusion of Ames test): with and without metabolic activation. The class given is cell-based. On the procedure: (§1) Mutagenic activity of the compound No. 1 in the invention and 4,4'-diglycidyldiphenylsulfone was evaluated by Ames test for using Salmonela strains (TA-100 and TA-1535) and E. coli (WP2uvrA) under conditions of metabolic activation and metabolic inactivation. The metabolic activation system was consisted of supernatant of 9000 G in centrifugation from rat liver homogenate (S9) mixture which was induced by 5,6-benzoflavone or phenobar bital, and a coenzyme. Both test compounds were prepared at concentration of 50 mg/mL by using dimethylformamide. Then, they were successively diluted to prepare lower concentration solutions by the same solvent. The concentration of each test substance is adjusted to be 128, 320, 800, 2000 and 5000 μg/plate. The test mixture of the bacteria, each test substance and sodium phosphate buffer solution (S9 mixture under the metabolic activation condition) was incubated at 37° C. for 20 minutes. After the incubation the mixture was added by soft agar solution containing minimum nutrients, homogeneously inoculated on an agar plate and incubated at 37° C. for 65 hours. […] It was concluded from the results that the compound No 1. was not mutagenic, but 4,4'-diglycidyldiphenylsulfone was mutagen.
For orientation: In the Ames test, an excess of revertant colonies over the control signals mutagenicity.

Data set [2] in a line: Deposited materials observed after incubation in Ames test. The class given is physicochemical. The following applies: both conditions of metabolic activation and inactivation. On the procedure:
as §1

Data set [3] is described as follows: Photostability of developed image (Fademeter, Macbeth Reflection Densitometer). The following applies: reflection density, filter #106; for Photostability of developed image, After exposing: after Fademeter exposing for 3 hours; for Photostability of developed image, Before exposing: color developed at 150° C., before Fademeter. The source says: (§2) Example 4 (Preparation of Heat Sensitive Recording Paper)
(§3) A compound in the invention (or a reference compound)
(§4) Each above mixture was sufficiently homogenized by sand grinder to prepare Liquid A, B or C. One weight part of Liquid A, 2 weight parts of Liquid B and 1 weight part of Liquid C. were mixed to prepare a dispersion liquid to tint. The liquid was coated on white paper by applying Wire Rod No. 12, then dried to manufacture the heat sensitive recording paper.
(§5) In the preparation of Liquid C in Example 4, instead of the compound in the invention, 4-glycidyloxy-4'-isoprpoxydiphenylsulfone was taken place, the other components were same as Example 4 and the heat sensitive recording paper was similarly prepared.
(§6) A part of the heat sensitive recording papers which were prepared according to the Example 4 and the Comparative examples were heated from both sides to develop color at 150° C. by dry-heating tester (Kishino Science machinery Co.). Then, after they were placed in Incubator Controlled Humidity and Temperature at 50° C. under 80% humidity and in Fademeter (Type FAL-5, Suga Tester Co.) exposing for 3 hours, the stability of backgrounds, of the color images and anti-photo stability were determined by Macbeth Reflection Densitometer (Type RD-514, Ratten #106).

The nature of data set [4]: Stability of background to heat and humidity (heat sensitive recording paper, Macbeth Reflection Densitometer). The following applies: reflection density, filter #106; for Stability of Background to heat and humidity, After exposing: after 50° C. under 80% humidity; for Stability of Background to heat and humidity, Before exposing: before 50° C., 80% humidity.
Excerpt: as §2, §3, §4, §5, §6

On to `O=S(=O)(c1ccc(OCC2CO2)cc1)c1ccc(OCC2CO2)cc1` (stereo not drawn) [4,4'-diglycidyloxydiphenylsulfone, reference compound], for which the “increase of recovery mutation colony” value in data set [1] is “increases of recovery mutation colony were in all strains”. The “mutagenicity (conclusion of Ames test)” value is “mutagenic” in data set [1] and “mutagen” in data set [1] (listed as 4,4'-diglycidyldiphenylsulfone). The “concentration above which deposited materials were observed” value in data set [2] is recorded as 320-800 μg/plate.
On to `O=S(=O)(c1ccc(OCc2ccc(Cl)cc2)cc1)c1ccc(OCC2CO2)cc1` (stereo not drawn) [(2)], for which, in data set [3], the “Photostability of developed image, After exposing” value (from here on “Photostability … After exposing”) was found to be 1.15 and the “Photostability of developed image, Before exposing” value (from here on “Photostability … Before exposing”) is on record as 1.23. Moreover, in data set [4], the “Stability of Background to heat and humidity, After exposing” value (shortened to “Stability of Background … After exposing”) is listed as 0.11; the “Stability of Background to heat and humidity, Before exposing” value (“Stability of Background … Before exposing” below) was found to be 0.07.
Turning to `CC1(COc2ccc(S(=O)(=O)c3ccc(OCc4ccccc4Cl)cc3)cc2)CO1` (stereo not drawn) [(3)], in data set [3], the “Photostability … After exposing” value is given as 1.09 and the “Photostability … Before exposing” value turned out to be 1.22. In addition, in data set [4], the “Stability of Background … After exposing” value is listed as 0.10; the “Stability of Background … Before exposing” value is 0.08.
The like results for `CC1(COc2ccc(S(=O)(=O)c3ccc(OCc4ccc(Cl)cc4)cc3)cc2)CO1` (stereo not drawn) [(4)] were, in that order, 1.14, 1.23, 0.09 and 0.07.
Taken in the same sequence, the figures for `Cc1ccc(COc2ccc(S(=O)(=O)c3ccc(OCC4(C)CO4)cc3)cc2)cc1` (stereo not drawn) [(6)] were 1.16, 1.22, 0.12 and 0.09.
The like results for `C=CCOc1ccc(S(=O)(=O)c2ccc(OCC3CO3)cc2)cc1` (stereo not drawn) [(7)] were, in that order, 1.12, 1.21, 0.07 and 0.07.
As to `CC(C)Oc1ccc(S(=O)(=O)c2ccc(OCC3CO3)cc2)cc1` (stereo not drawn) [compound 1, 4-glycidyloxy-4'-isoprpoxydiphenylsulfone, reference compound], in data set [3], the “Photostability … After exposing” value was found to be 1.00 and the “Photostability … Before exposing” value was found to be 1.19. For the same compound, in data set [4], the “Stability of Background … After exposing” value worked out at 0.17; the “Stability of Background … Before exposing” value is recorded as 0.07.
For `CC1(COc2ccc(S(=O)(=O)c3ccc(OCc4ccccc4)cc3)cc2)CO1` (stereo not drawn) [compound (1), 4-benzyloxy-4'-(2-methylglycidyloxy)diphenylsulfone], in data set [3], the “Photostability … After exposing” value is on record as 1.13 and the “Photostability … Before exposing” value is 1.21. Further, the “increase of recovery mutation colony” value in data set [1] is “No increase of recovery mutation colony was observed in any strain”. Also, the “mutagenicity (conclusion of Ames test)” value in data set [1] (listed as compound No. 1) is listed as “not mutagenic”. The “concentration above which deposited materials were observed” value in data set [2] was over 800 μg/plate. Also, in data set [4], the “Stability of Background … After exposing” value worked out at 0.07; the “Stability of Background … Before exposing” value was 0.06.
Take `Cc1ccc(COc2ccc(S(=O)(=O)c3ccc(OCC4CO4)cc3)cc2)cc1` (stereo not drawn) [compound (5), 4-(4-methylbenzyloxy)-4'-glycidyloxydiphenylsulfone]: in data set [3], the “Photostability … After exposing” value stood at 1.12 and the “Photostability … Before exposing” value is reported as 1.20. Moreover, in data set [4], the “Stability of Background … After exposing” value is on record as 0.10; the “Stability of Background … Before exposing” value amounted to 0.08.
